# Where no end group is shown, it is not given here.
# System: patients undergoing ERCP
# Experiment: Incidence and severity of post-ERCP pancreatitis, randomized double-blind placebo controlled study
# Type: in vivo, human
# Description: This was a prospectively randomized, parallel group, double-blind, placebo controlled study conducted at one center. This was the ideal study design for evaluation of the prophylactic use of sPS in ERCP to decrease the incidence of post-ERCP pancreatitis. Parallel group design was necessary because patients usually require only one ERCP and, in any case, the first procedure might have an unknown effect on the outcome of a subsequent ERCP. Double-blinding the study was necessary because a major component of the evaluation related to symptoms such as pain and nauseas, which are, in part, subjective for the patient. The final classification of each patient required an overall medical judgment by the investigator. In order for this to be as objective as possible, the assessor (Principal Investigator) had to be blinded. Placebo control with normal saline was required because there is no approved or medically accepted drug to prevent post-ERCP pancreatitis. Further, sterile normal saline, USP for injection was completely safe with no pharmacological effect and produced a clear, colorless solution, which was indistinguishable from reconstituted sPS.
# Patients undergoing ERCP for medical reasons were the appropriate population to evaluate because only those requiring ERCP have the procedure and are subject to the known risk of post-ERCP pancreatitis. The patients had to meet all of the inclusion criteria to be enrolled in the study. […] Subjects were discontinued for the following reasons: (1) voluntary withdraw at subject's request; (2) noncompliance by subject to study procedures; (3) protocol violation such as discovery of pancreas divisum at the time of the ERCP, or (4) excessive toxicity from any study procedure or drug which in the judgment of the investigator makes continuation in the study contrary to the subject's medical interests. Subjects who discontinued from the study after receiving study drug were followed for safety and were replaced.
# This study compared synthetic porcine secretin (sPS) at a dose of 16 mcg (8 mL) (24 mcg for procedures longer than 30 minutes) given as a slow IV push over one minute and an equal volume of physiologic sterile saline USP for injection. Subjects were randomly assigned to one of two treatment groups (sPS vs. saline placebo) based on a randomization schedule generated at ChiRhoClin, Inc (Burtonsville, Md.). […] The final syringe with an identical appearing clear, colorless solution of identical volume containing either reconstituted sPS or saline was then delivered to the investigator performing the ERCP. The randomization code assigned patients in a 1:1 manner between the two treatments and was balanced in blocks of 250 patients.
# Incidence of post-ERCP pancreatitis (sPS vs. placebo) was evaluated as the primary efficacy variable in this study. Secondary efficacy variables included incidences of post-ERCP pancreatitis in the following sub-populations: (1) cannulation of CBD; (2) sphincterotomy of CBD; (3) cannulation of pancreatic duct; (4) sphincterotomy of pancreatic duct; (5) stent insertion and removal into CBD; (6) stent insertion and removal into pancreatic duct; (7) stone extraction (basket) from CBD; (8) stone extraction (balloon) from CBD; (9) manometry of CBD; (10) manometry of pancreatic duct; (11) pain scores pre and post ERCP (0-10 scale); (12) nausea scores pre and post ERCP (0-10 scale); (13) vomiting scores pre and post ERCP (0-10 scale); (14) return to baseline activity (pre-ERCP); and (15) return to work.
# In addition, the severity of pancreatitis was graded as defined by Cotton (Cotton, PB Gastrointest. Endosc. 40(4):514-18 (1994)), using the following criteria: (1) Minimal—managed on an outpatient basis; (2) Mild—Required hospitalization ≦3 days; (3) Moderate—required hospitalization for 4 to 10 days; and (4) Severe—required hospitalization for >10 days, ICU admission, surgical intervention or death. […]
# [1] = of 44 cases, hospitalization 4 to 10 days
# [2] = of 44 cases, hospitalization >10 days, ICU, surgery or death
# [3] = of 44 cases, hospitalization ≦3 days
# [4] = of 44 cases, managed on an outpatient basis
# [5] = overall, N = 488, 16 mcg IV (24 mcg if >30 min), p 0.0161 vs placebo
# [6] = sub-population Cannulation of CBD, N = 361
# [7] = sub-population Cannulation of CBD, N = 361, p 0.0010
# [8] = sub-population Cannulation of Pancreatic Duct, N = 220
# [9] = sub-population Cannulation of Pancreatic Duct, N = 220, p 0.1237
# [10] = sub-population Manometry of CBD, N = 19
# [11] = sub-population Manometry of CBD, N = 19, p 0.0819
# [12] = sub-population Manometry of Pancreatic Duct, N = 11
# [13] = sub-population Manometry of Pancreatic Duct, N = 11, p 0.3665
# [14] = sub-population Sphincterotomy of CBD, N = 140
# [15] = sub-population Sphincterotomy of CBD, N = 140, p 0.0001
# [16] = sub-population Sphincterotomy of Pancreatic Duct, N = 26
# [17] = sub-population Sphincterotomy of Pancreatic Duct, N = 26, p 0.1666
# [18] = sub-population Stent Insertion into CBD, N = 108
# [19] = sub-population Stent Insertion into CBD, N = 108, p 0.0856
# [20] = sub-population Stent Insertion into Pancreatic Duct, N = 23
# [21] = sub-population Stent Insertion into Pancreatic Duct, N = 23, p 1.0000
# [22] = sub-population Stent Removal from CBD, N = 58
# [23] = sub-population Stent Removal from CBD, N = 58, p 0.6185
# [24] = sub-population Stent Removal from Pancreatic Duct, N = 17
# [25] = sub-population Stent Removal from Pancreatic Duct, N = 17, p 1.0000
# [26] = sub-population Stone Extraction (Balloon), N = 55
# [27] = sub-population Stone Extraction (Balloon), N = 55, p 1.0000
# [28] = sub-population Stone Extraction (Basket), N = 35
# [29] = sub-population Stone Extraction (Basket), N = 35, p 0.2298
substance,measurement,setting,value
"synthetic porcine secretin (HSDGTFTSELSRLRDSARLQRLLQGLV-NH2; ends and bridges not checked; UniProt P63298 33-59, looked up) [SPS, synthetic form of porcine secretin, a 27 amino acid gastrointestinal peptide hormone]",Post-ERCP Pancreatitis Severity Total (%),N = 488/44,100.0%
same,Post-ERCP Pancreatitis Severity Total: number of cases,N = 488/44,44
same,Post-ERCP Pancreatitis Severity Unknown (%),of 44 cases,15.91%
same,Post-ERCP Pancreatitis Severity Unknown: number of cases,of 44 cases,7
same,Post-ERCP Pancreatitis Severity Moderate (%),[1],20.45%
same,Post-ERCP Pancreatitis Severity Moderate: number of cases,[1],9
same,Post-ERCP Pancreatitis Severity Severe (%),[2],2.27%
same,Post-ERCP Pancreatitis Severity Severe: number of cases,[2],1
same,Post-ERCP Pancreatitis Severity Mild (%),[3],31.82%
same,Post-ERCP Pancreatitis Severity Mild: number of cases,[3],14
same,Post-ERCP Pancreatitis Severity Minimal (%),[4],29.55%
same,Post-ERCP Pancreatitis Severity Minimal: number of cases,[4],13
same,"Incidence of Post-ERCP Pancreatitis, No (%)","overall, N = 488, 16 mcg IV",90.98%
same,"Incidence of Post-ERCP Pancreatitis, No: number of patients","overall, N = 488, 16 mcg IV",444
same,"Incidence of Post-ERCP Pancreatitis, Yes (%)",[5],9.02%
same,"Incidence of Post-ERCP Pancreatitis, Yes: number of patients",[5],44
same,magnitude of the decrease in the frequency of post-ERCP pancreatitis,"relative to placebo, 979 patients, p=0.0137",36.2%
same,Post-ERCP Pancreatitis No (%),[6],92.52%
same,Post-ERCP Pancreatitis No: number of patients,[6],334
same,Post-ERCP Pancreatitis Yes (%),[7],7.48%
same,Post-ERCP Pancreatitis Yes: number of patients,[7],27
same,Post-ERCP Pancreatitis No (%),[8],86.36%
same,Post-ERCP Pancreatitis No: number of patients,[8],190
same,Post-ERCP Pancreatitis Yes (%),[9],13.64%
same,Post-ERCP Pancreatitis Yes: number of patients,[9],30
same,Post-ERCP Pancreatitis No (%),[10],78.95%
same,Post-ERCP Pancreatitis No: number of patients,[10],15
same,Post-ERCP Pancreatitis Yes (%),[11],21.05%
same,Post-ERCP Pancreatitis Yes: number of patients,[11],4
same,Post-ERCP Pancreatitis No (%),[12],54.58%
same,Post-ERCP Pancreatitis No: number of patients,[12],6
same,Post-ERCP Pancreatitis Yes (%),[13],45.45%
same,Post-ERCP Pancreatitis Yes: number of patients,[13],5
same,Post-ERCP Pancreatitis No (%),[14],95.00%
same,Post-ERCP Pancreatitis No: number of patients,[14],133
same,Post-ERCP Pancreatitis Yes (%),[15],5.00%
same,Post-ERCP Pancreatitis Yes: number of patients,[15],7
same,Post-ERCP Pancreatitis No (%),[16],57.85%
same,Post-ERCP Pancreatitis No: number of patients,[16],14
same,Post-ERCP Pancreatitis Yes (%),[17],46.15%
same,Post-ERCP Pancreatitis Yes: number of patients,[17],12
same,Post-ERCP Pancreatitis No (%),[18],97.22%
same,Post-ERCP Pancreatitis No: number of patients,[18],105
same,Post-ERCP Pancreatitis Yes (%),[19],2.78%
same,Post-ERCP Pancreatitis Yes: number of patients,[19],3
same,Post-ERCP Pancreatitis No (%),[20],78.26%
same,Post-ERCP Pancreatitis No: number of patients,[20],18
same,Post-ERCP Pancreatitis Yes (%),[21],21.74%
same,Post-ERCP Pancreatitis Yes: number of patients,[21],5
same,Post-ERCP Pancreatitis Yes (%),"sub-population Stent Insertion into Pancreatic Duct, N = 23, p 1.0000, listed as sPS",21.7%
same,Post-ERCP Pancreatitis No (%),[22],98.28%
same,Post-ERCP Pancreatitis No: number of patients,[22],57
same,Post-ERCP Pancreatitis Yes (%),[23],1.72%
same,Post-ERCP Pancreatitis Yes: number of patients,[23],1
same,Post-ERCP Pancreatitis No (%),[24],88.24%
same,Post-ERCP Pancreatitis No: number of patients,[24],15
same,Post-ERCP Pancreatitis Yes (%),[25],11.76%
same,Post-ERCP Pancreatitis Yes: number of patients,[25],2
same,Post-ERCP Pancreatitis No (%),[26],92.73%
same,Post-ERCP Pancreatitis No: number of patients,[26],51
same,Post-ERCP Pancreatitis Yes (%),[27],7.27%
same,Post-ERCP Pancreatitis Yes: number of patients,[27],4
same,Post-ERCP Pancreatitis No (%),[28],97.14%
same,Post-ERCP Pancreatitis No: number of patients,[28],34
same,Post-ERCP Pancreatitis Yes (%),[29],2.86%
same,Post-ERCP Pancreatitis Yes: number of patients,[29],1
